Tests used:
[1] = molecular target: G146A 5-12 G-quadruplex of hTERT core promoter; experiment: FRET assay for Kd, G146A probe; type: binding, human
Procedure: (§1) FRET assay for compound screening and determination of Kd value. FRET probes of WT, G124/125A, and G146A of the 5-12 G-quadruplex were synthesized and labeled with FAM (Ex. 490 nm/Em. 520 nm) and TAMRA (Ex. 560 nm/Em. 580 nm) at each end by MGW Operon Inc. The WT probe (50 nM) was annealed in a buffer containing 10 mM Tris-HCl (pH 7.5) and 5 mM KCl by heating at 95° C. for 5 min and slowly cooling to room temperature. Compounds (50 μM) and probe were incubated for 1 h at room temperature. The same volume of DMSO served as a control. For Kd value determination, the WT, G124/125A, and G146A probes were annealed, and then several concentrations of compound were treated for 1 h at room temperature. Dose-dependent fluorescence intensity at 520 nm was measured by a microplate reader (BioTek Synergy HT). The data were corrected with the blank signal of buffer and compound. The relative fluorescence intensity compared to DMSO was used for binding curve fitting to determine Kd value using GraphPad Prism software.
(§2) The hTERT core promoter region includes 12 runs of consecutive guanines that form two G-quadruplexes in tandem on the G-rich strand. […] When the G-quadruplex is folded, two fluorophores are in proximity, which leads to a decrease in FAM fluorescence. […]

[2] = tested on: G124/125A 5-12 G-quadruplex; experiment: CD kinetics, temperature-jump, G124/125A; type: biochemical, human; settings: 2 equiv
Procedure: FIGS. 10A and 10B are a set of graphs showing (A) comparison of kinetics of initial folding rate of the WT 5-12 G-quadruplex with GTC365 and BRACO-19 by the temperature-jump method. (B) Enhanced initial folding rate of the 5-12 G-quadruplexes carrying different hTERT mutants by GTC365. The time-course CD signal of preheated oligo with compound or DMSO in a buffer containing 10 mM Tris-HCl (pH 7.5) and 5 mM KCl was monitored at 262 nm and 25° C.
For the kinetics analysis using the temperature-jump method, theoligo in a buffer containing 10 mM Tris-HCl (pH 7.5) was heated forl min at 95° C., and then a mixture of KCl and compound was addedand incubated for 1 min. Meanwhile, the CD cuvette was also heatedat 95° C. As soon as the sample in the CD cuvette at the hightemperature was placed in the CD chamber, a time-dependent CDsignal at 262 nm was recorded immediately. The initial folding ratewas determined by one-phase association curve fitting (eq 1) of thekinetics curve using GraphPad Prism 5: Y=Y0+(Plateau−Y0)*(1−e^−kx) (1) where Y is the CD signal at any time point x, Y0 is the Y value whentime (x) is zero, plateau is the Y value at infinite time, and k is the rateconstant.
To evaluate the comparative effects of GTC365 relative to BRACO-19 on the cooperative folding process, we carried out two different experiments. […]

MCF7 cells = experiment: Senescence β-galactosidase assay; type: cell-based, human; settings: 0.5 μM, 5-10 days
Procedure: Senescence β-galactosidase assay. A colorimetric β-galactosidase assay was performed. Briefly, compound-treated MCF7 cells were fixed in 2% formaldehyde and 0.2% glutaraldehyde for 5 min at room temperature. Fixed cells were incubated with staining solution containing 40 mM citric acid (pH 6.0), 5 mM potassium ferrocyanide, 5 mM potassium ferricyanide, 150 mM NaCl, and 2 mM MgCl2 and 1 mg/ml X-gal (Fermentas R0401) for 7 h at 37° C. Stained cells were washed with D-PBS and methanol and subsequently dried in air.
Since senescence is one of the outcomes resulting from loss of telomere length, this was measured by the associated overexpression of lysosomal β-galactosidase, which releases indigo (blue dye) from X-gal. In addition, the cell morphology will also be dramatically changed so that cells appear to be flat and enlarged. […] Abnormal phenotypes such as bridges connecting two adjacent cells and multinucleated cells were also observed in GTC365-treated cells. hTERT is known to localize to mitotic spindles and centromeres and regulate the expression of genes involved in heterochromatin maintenance. In addition, there is alteration of expression of some proteins involved in collagen synthesis or tubulin organization by hTERT transfection.

[3] = molecular target: G124/125A 5-12 G-quadruplex of hTERT core promoter; experiment: FRET assay for Kd, G124/125A probe; type: binding, human
Procedure: as §1, §2

caspase-3 = experiment: Caspase assay in MCF7 cells; type: cell-based, human; settings: 0.5-1 μM, 48 h, relative to DMSO
Procedure: Caspase assay. MCF7 cells in a 6-well plate were treated with GTC365 for 48 h. The caspase-3 assay was conducted using an Apoalert Caspase 3 Fluorescent Assay Kit (Clontech) with DEVD-AFC as a substrate of capase-3 following the manufacturer's instruction. Fluorescence intensity of released AFC was measured using a BioTek Synergy HT with excitation at 400 nm and emission at 505 nm. The relative caspase-3 activity compared to the DMSO was obtained.
Indeed at 0.5-1 μM, the BAX/BCL2 ratio was increased by over 2-fold and the capase-3 activity was increased by 47% (FIGS. 11 and 12).

N=C(N)NCCCS(=O)(=O)Nc1ccc(Nc2c3ccccc3nc3cc([N+](=O)[O-])ccc23)cc1 [GTC365] was tested, and the “Kd value higher than WT and G124/125A” value [1] was 1.5 fold, the “increase of initial folding rate” value [2] was 0.042 s⁻¹ and the “senescence-like phenotype (β-galactosidase staining, morphology)” value (MCF7 cells) was “distinct senescence-like phenotype (SLP)”. For the same compound, the Kd [3] was ~400 nM and the “increase of caspase-3 activity” value (caspase-3) was 47%.

— US10556860B2, “hTERT modulators and methods of use” (Arizona Board of Regents on Behalf of the University of …, priority 2015, dated 2020)
